Laboratory results: patent US20260327225A1, “HETEROCYCLIC COMPOUNDS AS TRIGGERING RECEPTOR EXPRESSED ON MYELOID CELLS 2 AGONISTS AND METHODS OF USE” (VIGIL NEUROSCIENCE, INC., priority 2023, published 2026)
pEC50: −log10 of the molar value.

target: T1, human TREM2 (Homo sapiens, UniProt Q9NZC2); test: TREM2 agonist potency by cellular phosphorylation of Syk (AlphaLisa) in HEK293T-hTREM2 cells expressing human TREM2 and DAP12; format: cell-based; conditions: HEK293 cells expressing hTREM2 and DAP12; 45 minutes at room temperature; Syk phosphorylation, AlphaLisa; read-out: hTREM2 EC50
T1 construct: expressed in transfected cells; host or cells: HEK293T-hTREM2 cells (HEK cell line expressing human TREM2 and DAP12)
Method: In vitro Measurement of Triggering Receptor Expressed on Myeloid Cells 2 activity using cellular phosphorylation of Spleen Tyrosine Kinase (“Syk”) Assays
Measurement of TREM2 agonist potency was done using a HEK cell line expressing human TREM2 and DAP12 (HEK293T-hTREM2 cells). Binding of small molecules to, and activation of, TREM2 increases the phosphorylation of Syk. The resultant levels of Syk phosphorylation are measured using a commercial AlphaLisa reagent kit. To perform the assay, HEK-hTREM2 cells were plated at 14,000 cells per well in a 384 well plate, in 25 μL of complete growth media and incubated at 37° C., 5% CO2 for 20-24 hours.
Prior to the assay, test compounds were diluted in the 384 well plates in assay buffer and allowed to equilibrate for 30 minutes. Growth media was removed from cell plates by inversion on blotting paper, and 25 μL of test articles in assay buffer was added to cells. Cells were incubated for 45 minutes at room temperature. After 45 minutes, assay buffer was removed and 10 μL of lysis buffer was added. Plates were shaken for 20 minutes at 350 RPM at room temperature. After complete lysis, AlphaLisa reagents were added to the lysate, and fluourescence intensity was measured using a Perkin Elmer Envision plate reader. Intensities were used to generate a standard curve, and % activation was calculated. Curve fitting was performed using Prism v9 software, log(agonist) vs response—variable slope (four parameters), and EC50s were calculated from the curve fit.
The results presented in Table B have been generated with the in vitro assay described above. This assay may be used to test any of the compounds described herein to assess and characterize a compound's ability to act as an agonist of TREM2.

T1 sequence (Q9NZC2 19-230): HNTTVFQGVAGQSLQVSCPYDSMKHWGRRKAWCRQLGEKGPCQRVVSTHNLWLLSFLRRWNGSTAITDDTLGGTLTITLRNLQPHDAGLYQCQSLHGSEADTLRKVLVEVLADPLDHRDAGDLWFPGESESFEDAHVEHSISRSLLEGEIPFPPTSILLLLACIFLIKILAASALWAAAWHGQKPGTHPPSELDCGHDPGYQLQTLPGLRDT
T1 sequence (O43914 22-113 partner): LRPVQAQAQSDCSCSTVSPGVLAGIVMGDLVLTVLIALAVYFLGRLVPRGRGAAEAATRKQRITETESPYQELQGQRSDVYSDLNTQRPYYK

| pEC50 | Compound |
| --- | --- |
| > 7.00 | Cc1noc(-c2cc3c(-c4ccc(F)cc4F)nc([C@H]4CCO[C@@H](c5cnn(C6CC6)c5)C4)nc3nc2C)n1 (racemic) [Example 19, 5-[4-(2,4-difluorophenyl)-7-methyl-2-[rac-(2R,4S)-2-(1-cyclopropylpyrazol-4-yl)-tetrahydropyran-4-yl]pyrido[2,3-d]pyrimidin-6-yl]-3-methyl-1,2,4-oxadiazole] |
| > 7.00 | Cc1nc2nc([C@H]3CCO[C@@H](c4cn(C)c(=O)s4)C3)nc(C34CC(C(F)(F)F)(C3)C4)c2cc1C#N (racemic) [Example 81, 7-methyl-2-[rac-(2R,4S)-2-(3-methyl-2-oxo-thiazol-5-yl)tetrahydropyran-4-yl]-4-[3-(trifluoromethyl)-1-bicyclo[1.1.1]pentanyl]pyrido[2,3-d]pyrimidine-6-carbonitrile] |
| 6.30 to 7.00 | Cc1nc2nc(N3C[C@@H](C)O[C@@H](c4cnn(C5CC5)c4)C3)nc(C34CC(C(F)(F)F)(C3)C4)c2cc1C(F)(F)Cl (racemic) [Example 90, (2S,6R)-4-(6-(chloro-difluoromethyl)-7-methyl-4-(3-(trifluoromethyl)-bicyclo[1.1.1]pentan-1-yl)pyrido[2,3-d]pyrimidin-2-yl)-2-(1-cyclopropyl-1H-pyrazol-4-yl)-6-methylmorpholine] |
| > 7.00 | Cc1nc2nc([C@H]3CCO[C@@H](c4cn(C)c(=O)s4)C3)nc(C34CC(C(F)(F)F)(C3)C4)c2nc1C (racemic) [Example 106, 3-methyl-5-[rac-(2R,4S)-4-[6,7-dimethyl-4-[3-(trifluoromethyl)-1-bicyclo[1.1.1]pentanyl]-pteridin-2-yl]tetrahydropyran-2-yl]thiazol-2-one] |
| > 7.00 | COc1ncc([C@H]2C[C@@H](c3nc(C45CC(C(F)(F)F)(C4)C5)c4nc(C)c(C)nc4n3)CCO2)s1 (racemic) [Example 117, 2-methoxy-5-[rac-(2R,4S)-4-[6,7-dimethyl-4-[3-(trifluoromethyl)-1-bicyclo[1.1.1]pentanyl]pteridin-2-yl]tetrahydropyran-2-yl]thiazole] |
| > 7.00 | Cc1nc2nc([C@H]3CCO[C@@H](c4ccnc(N(C)C)c4)C3)nc(C34CC(C(F)(F)F)(C3)C4)c2nc1C (racemic) [Example 124, N,N-dimethyl-4-[rac-4-[6,7-dimethyl-4-[3-(trifluoromethyl)-1-bicyclo[1.1.1]pentanyl]pteridin-2-yl]tetrahydropyran-2-yl]pyridin-2-amine] |
| 6.30 to 7.00 | Cc1nc2nc([C@@H]3CCO[C@@H](c4ccnc(N(C)C)c4)C3)nc(C34CC(C(F)(F)F)(C3)C4)c2nc1C (racemic) [Example 125, N,N-dimethyl-4-[rac-4-[6,7-dimethyl-4-[3-(trifluoromethyl)-1-bicyclo[1.1.1]pentanyl]pteridin-2-yl]tetrahydropyran-2-yl]pyridin-2-amine] |
| > 7.00 | Cc1nc2nc(C3CCOC(c4cnnc(N(C)C)c4)C3)nc(C34CC(C(F)(F)F)(C3)C4)c2nc1C (racemic) [Example 129, N,N-dimethyl-5-[rac-cis-4-[6,7-dimethyl-4-[3-(trifluoromethyl)-1-bicyclo[1.1.1]pentanyl]pteridin-2-yl]tetrahydropyran-2-yl]pyridazin-3-amine] |
| 6.30 to 7.00 | Cc1nc2nc(C3CCOC(c4cnnc(N(C)C)c4)C3)nc(C34CC(C(F)(F)F)(C3)C4)c2nc1C (racemic) [Example 130, N,N-dimethyl-5-[rac-trans-4-[6,7-dimethyl-4-[3-(trifluoromethyl)-1-bicyclo[1.1.1]pentanyl]pteridin-2-yl]tetrahydropyran-2-yl]pyridazin-3-amine] |
| 6.30 to 7.00 | Cc1nc2nc(N3C[C@@H](C)O[C@@H](c4ccnc(N(C)C)c4)C3)nc(C34CC(C(F)(F)F)(C3)C4)c2nc1C (racemic) [Example 142, N,N-dimethyl-4-[rac-(2S,6R)-4-[6,7-dimethyl-4-[3-(trifluoromethyl)-1-bicyclo[1.1.1]pentanyl]pteridin-2-yl]-6-methyl-morpholin-2-yl]pyridin-2-amine] |
| 6.30 to 7.00 | CO[C@H]1CN(c2nc(-c3ccc(F)cc3F)c3nc(C)c(C)nc3n2)C[C@@H]1c1cn(C2CC2)nn1 (stereo in doubt) [Example 134, 2-[3-(1-cyclopropyl-triazol-4-yl)-4-methoxy-pyrrolidin-1-yl]-4-(2,4-difluorophenyl)-6,7-dimethyl-pteridine formic acid] |
| > 7.00 | COC(=O)c1cc2c(-c3ccc(F)cc3F)nc(N3C[C@@H](C)O[C@@H](c4cnn(C5CC5)c4)C3)nc2nc1C [Example 1, methyl 2-[(2S,6R)-2-(1-cyclopropylpyrazol-4-yl)-6-methyl-morpholin-4-yl]-4-(2,4-difluorophenyl)-7-methyl-pyrido[2,3-d]pyrimidine-6-carboxylate] |
| < 6.30 | Cc1nc2nc(N3C[C@@H](C)O[C@@H](c4cnn(C5CC5)c4)C3)nc(-c3ccc(F)cc3F)c2cc1C(=O)N(C)C [Example 2, 2-((2S,6R)-2-(1-cyclopropyl-1H-pyrazol-4-yl)-6-methylmorpholino)-4-(2,4-difluorophenyl)-N,N-7-trimethylpyrido[2,3-d]pyrimidine-6-carboxamide] |
| < 6.30 | Cc1nc2nc(N3C[C@@H](C)O[C@@H](c4cnn(C5CC5)c4)C3)nc(-c3ccc(F)cc3F)c2cc1C(=O)O [Example 3, 2-[(2S,6R)-2-(1-cyclopropylpyrazol-4-yl)-6-methyl-morpholin-4-yl]-4-(2,4-difluorophenyl)-7-methyl-pyrido[2,3-d]pyrimidine-6-carboxylic acid] |
| > 7.00 | CC(=O)c1cc2c(-c3ccc(F)cc3F)nc(N3C[C@@H](C)O[C@@H](c4cnn(C5CC5)c4)C3)nc2nc1C [Example 4, 1-[2-[(2S,6R)-2-(1-cyclopropylpyrazol-4-yl)-6-methyl-morpholin-4-yl]-4-(2,4-difluorophenyl)-7-methyl-pyrido[2,3-d]pyrimidin-6-yl]ethanone] |
| > 7.00 | CO/N=C(\C)c1cc2c(-c3ccc(F)cc3F)nc(N3C[C@@H](C)O[C@@H](c4cnn(C5CC5)c4)C3)nc2nc1C [Example 5, 1-[2-[(2S,6R)-2-(1-cyclopropylpyrazol-4-yl)-6-methyl-morpholin-4-yl]-4-(2,4-difluorophenyl)-7-methyl-pyrido[2,3-d]pyrimidin-6-yl]-N-methoxy-ethanimine] |
| > 7.00 | Cc1noc(-c2cc3c(-c4ccc(F)cc4F)nc(N4C[C@@H](C)O[C@@H](c5cnn(C6CC6)c5)C4)nc3nc2C)n1 [Example 6, (2S,6R)-2-(1-cyclopropylpyrazol-4-yl)-4-[4-(2,4-difluorophenyl)-7-methyl-6-(3-methyl-1,2,4-oxadiazol-5-yl)-pyrido[2,3-d]pyrimidin-2-yl]-6-methyl-morpholine] |
| > 7.00 | Cc1nc2nc(N3C[C@@H](C)O[C@@H](c4cnn(C5CC5)c4)C3)nc(-c3ccc(F)cc3F)c2cc1C1=NCCO1 [Example 7, (2S,6R)-2-(1-cyclopropylpyrazol-4-yl)-4-[4-(2,4-difluorophenyl)-6-(4,5-dihydrooxazol-2-yl)-7-methyl-pyrido[2,3-d]pyrimidin-2-yl]-6-methyl-morpholine] |
| > 7.00 | COC(=O)c1cc2c(-c3ccc(F)cc3F)nc([C@H]3CCO[C@@H](c4cnn(C5CC5)c4)C3)nc2nc1C [Example 8, methyl 2-((2R,4S)-2-(1-cyclopropyl-1H-pyrazol-4-yl)tetrahydro-2H-pyran-4-yl)-4-(2,4-difluorophenyl)-7-methylpyrido[2,3-d]-pyrimidine-6-carboxylate] |
